# Data: PubChem BioAssay (NCI)
#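 These data come from cells grown in 96-well plates and exposed to compound for 48 hours at five concentrations. TGI: total growth inhibition.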
# How the values were obtained:
# Test in all cases: NCI tumour cell line growth inhibition, 48 h
# [1] = system: 786-0 renal
# [2] = system: A498 renal
# [3] = system: A549 NSCLC
# [4] = system: ACHN renal
# [5] = system: CAKI-1 renal
# [6] = system: CCRF-CEM leukemia
# [7] = system: COLO 205 colon
# [8] = system: DLD-1 colon
# [9] = system: DMS 273 small cell lung
# [10] = system: EKVX NSCLC
# [11] = system: HCT-116 colon
# [12] = system: HCT-15 colon
# [13] = system: HL-60(TB) leukemia
# [14] = system: HOP-18 NSCLC
# [15] = system: HOP-62 NSCLC
# [16] = system: HOP-92 NSCLC
# [17] = system: HT29 colon
# [18] = system: IGROV1 ovarian
# [19] = system: K-562 leukemia
# [20] = system: KM12 colon
# [21] = system: KM20L2 colon
# [22] = system: LOX IMVI melanoma
# [23] = system: LXFL 529 NSCLC
# [24] = system: M14 melanoma
# [25] = system: M19-MEL melanoma
# [26] = system: MALME-3M melanoma
# [27] = system: MOLT-4 leukemia
# [28] = system: NCI-H226 lung
# [29] = system: NCI-H23 lung
# [30] = system: NCI-H460 lung
# [31] = system: NCI-H522 lung
# [32] = system: OVCAR-3 ovarian
# [33] = system: OVCAR-4 ovarian
# [34] = system: OVCAR-5 ovarian
# [35] = system: OVCAR-8 ovarian
# [36] = system: RPMI-8226 leukemia
# [37] = system: RXF 393 renal
# [38] = system: RXF-631 renal
# [39] = system: SF-268 CNS
# [40] = system: SF-295 CNS
# [41] = system: SF-539 CNS
# [42] = system: SK-MEL-2 melanoma
# [43] = system: SK-MEL-28 melanoma
# [44] = system: SK-MEL-5 melanoma
# [45] = system: SK-OV-3 ovarian
# [46] = system: SN12C renal
# [47] = system: SNB-19 CNS
# [48] = system: SNB-75 CNS
# [49] = system: SNB-78 CNS
# [50] = system: SR leukemia
# [51] = system: SW-620 colon
# [52] = system: TK-10 renal
# [53] = system: U251 CNS
# [54] = system: UACC-257 melanoma
# [55] = system: UACC-62 melanoma
# [56] = system: UO-31 renal
# [57] = system: XF 498 CNS
# [58] = system: DMS 114 small cell lung
# [59] = system: HCC-2998 colon
# [60] = system: MCF7 breast
# [61] = system: NCI/ADR-RES ovarian
# [62] = system: P388 leukemia
# [63] = system: P388/ADR leukemia
# [64] = system: SN12K1 renal
smiles,measurement,setting,value
COC(=O)c1ccccc1N=Cc1ccc(N(CCC#N)S(=O)(=O)c2ccccc2)cc1,TGI,[1],> 100000 nM
same,TGI,[2],> 100000 nM
same,TGI,[3],> 100000 nM
same,TGI,[4],> 100000 nM
same,TGI,[5],> 100000 nM
same,TGI,[6],> 100000 nM
same,TGI,[7],> 100000 nM
same,TGI,[8],> 100000 nM
same,TGI,[9],> 100000 nM
same,TGI,[10],> 100000 nM
same,TGI,[11],> 100000 nM
same,TGI,[12],> 100000 nM
same,TGI,[13],> 100000 nM
same,TGI,[14],> 100000 nM
same,TGI,[15],> 100000 nM
same,TGI,[16],> 100000 nM
same,TGI,[17],> 100000 nM
same,TGI,[18],> 100000 nM
same,TGI,[19],> 100000 nM
same,TGI,[20],> 100000 nM
same,TGI,[21],> 100000 nM
same,TGI,[22],> 100000 nM
same,TGI,[23],> 100000 nM
same,TGI,[24],> 100000 nM
same,TGI,[25],> 100000 nM
same,TGI,[26],> 100000 nM
same,TGI,[27],> 100000 nM
same,TGI,[28],> 100000 nM
same,TGI,[29],> 100000 nM
same,TGI,[30],> 100000 nM
same,TGI,[31],> 100000 nM
same,TGI,[32],> 100000 nM
same,TGI,[33],> 100000 nM
same,TGI,[34],> 100000 nM
same,TGI,[35],> 100000 nM
same,TGI,[36],> 100000 nM
same,TGI,[37],> 100000 nM
same,TGI,[38],> 100000 nM
same,TGI,[39],> 100000 nM
same,TGI,[40],> 100000 nM
same,TGI,[41],> 100000 nM
same,TGI,[42],> 100000 nM
same,TGI,[43],> 100000 nM
same,TGI,[44],> 100000 nM
same,TGI,[45],> 100000 nM
same,TGI,[46],> 100000 nM
same,TGI,[47],> 100000 nM
same,TGI,[48],> 100000 nM
same,TGI,[49],> 100000 nM
same,TGI,[50],> 100000 nM
same,TGI,[51],> 100000 nM
same,TGI,[52],> 100000 nM
same,TGI,[53],> 100000 nM
same,TGI,[54],> 100000 nM
same,TGI,[55],> 100000 nM
same,TGI,[56],> 100000 nM
same,TGI,[57],> 100000 nM
CC(=O)OC1C(O)C(C)OC(OC(=O)C2CCC3C(C2)OC2(CC(OC(=O)/C=C/c4ccccc4)C(C)CO2)C32CO2)C1OC1OC(C)C(O)C(O)C1O (centres undefined),TGI,[2],315 nM
same,TGI,[3],1300 nM
same,TGI,[5],9740 nM
same,TGI,[6],1260 nM
same,TGI,[7],56.9 nM
same,TGI,[8],5690 nM
same,TGI,[58],56.3 nM
same,TGI,[9],151 nM
same,TGI,[10],246 nM
same,TGI,[59],88.1 nM
same,TGI,[11],709 nM
same,TGI,[12],39200 nM
same,TGI,[13],579 nM
same,TGI,[14],585 nM
same,TGI,[15],223 nM
same,TGI,[16],39.6 nM
same,TGI,[17],576 nM
same,TGI,[18],131 nM
same,TGI,[19],2290 nM
same,TGI,[20],144 nM
same,TGI,[21],1420 nM
same,TGI,[22],362 nM
same,TGI,[25],49.7 nM
same,TGI,[26],93 nM
same,TGI,[60],91.7 nM
same,TGI,[27],5050 nM
same,TGI,[28],100 nM
same,TGI,[29],220 nM
same,TGI,[30],236 nM
same,TGI,[31],48.7 nM
same,TGI,[61],146000 nM
same,TGI,[32],91.7 nM
same,TGI,[33],70.6 nM
same,TGI,[34],1240 nM
same,TGI,[35],823 nM
same,TGI,[62],1390 nM
same,TGI,[63],113000 nM
same,TGI,[36],1150 nM
same,TGI,[37],208 nM
same,TGI,[39],150 nM
same,TGI,[40],542 nM
same,TGI,[41],105 nM
same,TGI,[42],38.9 nM
same,TGI,[43],68.5 nM
same,TGI,[44],89.7 nM
same,TGI,[45],213 nM
same,TGI,[46],833 nM
same,TGI,[64],82.8 nM
same,TGI,[47],90.9 nM
same,TGI,[48],135 nM
same,TGI,[49],104 nM
same,TGI,[51],568 nM
same,TGI,[53],120 nM
same,TGI,[54],72.6 nM
same,TGI,[55],114 nM
same,TGI,[56],33200 nM
same,TGI,[57],126 nM
